Data taken from PMC3454389, “Mining the Sinorhizobium meliloti Transportome to Develop FRET Biosensors for Sugars, Dicarboxylates and Cyclic Polyols” (PLoS ONE, 2012).

Legend:
SMc04259-CY = SMc04259-CY (Sinorhizobium meliloti, UniProt Q92P64); experiment: FRET biosensor SMc04259-CY, in vitro ligand titration; assay type: binding; conditions: for change in FRET with compound: SMc04259-CY
Procedure: (§1) Ligand-induced FRET ratio changes of purified FRET biosensor were screened using a LS55 luminescence spectrometer (PerkinElmer Instruments). Excitation (ex.) was at (λ/slit width) 433/10 nm (CFP) or 549/10 nm (OFP). Emission (em.) was measured at 475/10 nm (CFP), 527/10 nm (YFP), 573/10 nm (OFP) and 644/10 nm (RFP). To confirm that Aphrodite and mKate2 were properly folded their fluorescence was individually tested by direct excitation at 510/6 nm and 588/10 nm respectively.
(§2) Affinity constants (Kd) of FRET biosensors with specific ligands were established using a monochromator microplate reader (Safire, Tecan, Switzerland; CFP ex.: (λ\bandwidth) 433/12 nm, em.: 475/12 nm; YFP em.: 527/12 nm. OFP ex.: 533/12 nm, em.: 563/12 nm; RFP em.: 615/12 nm). Proteins were diluted to give relative fluorescence units (RFU) in the detection range of 30,000 to 50,000 RFU at a gain of 90 to 100, and then were added to a dilution series (10^−3 to 10^−11 M) of ligand in Tris-HCl (pH 8.5, 50 mM). The change in relative emission intensities at 527/477 nm (YFP/CFP) or 615/563 nm (RFP/OFP) was used to determine Kd by fitting the titration curves to a single-site-binding isotherm: [drawing 1] with: R, ratio; Rapo, ratio without ligand; Rsat, ratio at saturation of ligand; n, number of equal binding sites; [L], ligand concentration. Non-linear regression was used to fit the curves using SigmaPlot 11 (Systat Software Inc.) (Hill equation, 4 Parameters, b = 1). All measurements were done in quadruplicate.

RL2376-CY = molecular target: T1, RL2376-CY (Rhizobium leguminosarum, UniProt Q1MGQ3); experiment: FRET biosensor RL2376-CY, in vitro ligand titration; assay type: binding
T1 sequence (Q1MGQ3 24-320): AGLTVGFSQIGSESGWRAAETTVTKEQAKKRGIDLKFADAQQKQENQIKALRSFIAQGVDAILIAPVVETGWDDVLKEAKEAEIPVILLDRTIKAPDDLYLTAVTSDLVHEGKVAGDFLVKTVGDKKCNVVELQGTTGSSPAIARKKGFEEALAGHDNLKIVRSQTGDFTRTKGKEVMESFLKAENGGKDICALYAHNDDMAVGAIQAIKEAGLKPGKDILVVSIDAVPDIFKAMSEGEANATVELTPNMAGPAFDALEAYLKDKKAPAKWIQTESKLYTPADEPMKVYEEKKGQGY
Procedure: as §1, §2

[1] = tested on: genes encoding the ABC-transporter (RL2376-9); conditions: cited from earlier work
SMc02324-CY = SMc02324-CY (Sinorhizobium meliloti, UniProt Q92S11); experiment: FRET biosensor SMc02324-CY, in vitro ligand titration; assay type: binding; conditions: for reaction of biosensor with compound (FRET) / Kd: SMc02324-CY; for Kd: pCYS (pLMB291), Tris-HCl pH 8.5
Chain of SMc02324-CY (Q92S11 entry or part of it): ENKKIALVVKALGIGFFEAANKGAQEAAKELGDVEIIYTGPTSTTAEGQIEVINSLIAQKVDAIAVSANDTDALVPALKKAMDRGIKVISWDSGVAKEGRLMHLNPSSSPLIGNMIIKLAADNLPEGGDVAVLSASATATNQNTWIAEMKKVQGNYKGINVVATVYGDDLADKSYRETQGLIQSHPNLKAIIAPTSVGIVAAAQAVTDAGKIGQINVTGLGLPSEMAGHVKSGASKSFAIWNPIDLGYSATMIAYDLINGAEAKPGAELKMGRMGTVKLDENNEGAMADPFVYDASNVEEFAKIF
Procedure: as §1, §2

SMc02774-CY = SMc02774-CY (Sinorhizobium meliloti, UniProt Q92TD7); experiment: FRET biosensor SMc02774-CY, in vitro ligand titration; assay type: binding; conditions: for reaction of biosensor with compound (FRET) / Kd: SMc02774-CY; for Kd: pCYS (pLMB292), Tris-HCl pH 8.5
Chain of SMc02774-CY (Q92TD7 entry or part of it): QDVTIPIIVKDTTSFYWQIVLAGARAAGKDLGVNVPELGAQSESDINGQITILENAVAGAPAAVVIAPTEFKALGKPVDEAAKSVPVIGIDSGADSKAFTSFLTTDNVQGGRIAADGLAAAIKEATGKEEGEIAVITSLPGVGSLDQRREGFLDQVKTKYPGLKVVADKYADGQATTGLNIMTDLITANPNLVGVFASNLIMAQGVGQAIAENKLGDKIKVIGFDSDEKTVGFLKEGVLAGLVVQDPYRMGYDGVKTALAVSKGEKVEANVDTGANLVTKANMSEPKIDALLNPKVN
Procedure: as §1, §2

SMc02324-RO = SMc02324-RO (Sinorhizobium meliloti, UniProt Q92S11); experiment: FRET biosensor SMc02324-RO, in vitro ligand titration; assay type: binding; conditions: pROS (pLMB523), Tris-HCl pH 8.5
Chain of SMc02324-RO (Q92S11 entry or part of it): as the sequence (Q92S11 entry or part of it) above
Procedure: as §1
as §2, with “Non-linear regression was used to fit the curves using SigmaPlot 11 (Systat Software Inc.) (Hill equation, 4 Parameters, b = 1). All measurements were done in quadruplicate.” left out

rcc03024-CY (DctP) = molecular target: T2, rcc03024-CY (DctP) (Rhodobacter capsulatus, UniProt P37735); experiment: FRET biosensor rcc03024-CY, in vitro ligand titration; assay type: binding; conditions: for Kd: pCYS (pLMB414), Tris-HCl pH 8.5; for ΔFRET on saturation (%): change in FRET ratio on ligand binding
T2 construct: made in house; host or cells: E. coli Rosetta2
T2 sequence (P37735 27-333): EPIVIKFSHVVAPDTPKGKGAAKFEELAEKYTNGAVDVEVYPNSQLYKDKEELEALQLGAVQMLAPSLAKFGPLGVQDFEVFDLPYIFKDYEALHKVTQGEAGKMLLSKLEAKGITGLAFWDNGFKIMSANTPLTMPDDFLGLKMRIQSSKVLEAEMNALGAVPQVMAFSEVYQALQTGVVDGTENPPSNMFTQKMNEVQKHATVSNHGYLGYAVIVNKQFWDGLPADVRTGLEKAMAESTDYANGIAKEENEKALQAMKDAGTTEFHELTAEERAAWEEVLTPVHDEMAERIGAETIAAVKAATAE
Text: Ligand-induced FRET ratio changes of purified FRET biosensor were screened using a LS55 luminescence spectrometer (PerkinElmer Instruments).
Non-linear regression was used to fit the curves using SigmaPlot 11 (Systat Software Inc.) (Hill equation, 4 Parameters, b = 1). All measurements were done in quadruplicate.

rcc03024-RO = molecular target: T3, rcc03024-RO (Rhodobacter capsulatus, UniProt P37735); experiment: rcc03024-RO, FRET ratio change on ligand; assay type: binding
T3 construct: made in house; host or cells: E. coli Rosetta2
T3 sequence (P37735 27-333): T2 sequence (P37735 27-333)
Procedure: as §1
as §2, with “Non-linear regression was used to fit the curves using SigmaPlot 11 (Systat Software Inc.) (Hill equation, 4 Parameters, b = 1). All measurements were done in quadruplicate.” left out

SMb20036-CY = SMb20036-CY (Sinorhizobium meliloti, UniProt Q92XC3); experiment: biochemical; assay type: binding; conditions: compounds similar in structure to D-quinic acid
Chain of SMb20036-CY (Q92XC3 entry or part of it): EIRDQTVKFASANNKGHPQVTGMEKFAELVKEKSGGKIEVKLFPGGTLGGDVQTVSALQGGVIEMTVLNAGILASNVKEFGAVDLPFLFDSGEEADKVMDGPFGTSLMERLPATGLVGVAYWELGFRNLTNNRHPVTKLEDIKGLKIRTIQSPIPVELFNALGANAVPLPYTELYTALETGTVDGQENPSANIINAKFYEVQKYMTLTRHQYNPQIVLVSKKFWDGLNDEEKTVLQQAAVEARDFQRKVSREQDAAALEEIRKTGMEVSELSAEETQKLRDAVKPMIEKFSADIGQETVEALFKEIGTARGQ
Procedure: as §1, §2

SMc04259-RO = experiment: SMc04259-RO, FRET ratio change on ligand; assay type: binding, Sinorhizobium meliloti
Procedure: as §1
as §2, with “Non-linear regression was used to fit the curves using SigmaPlot 11 (Systat Software Inc.) (Hill equation, 4 Parameters, b = 1). All measurements were done in quadruplicate.” left out

SMb20712-CY = molecular target: T4, SMb20712-CY (Sinorhizobium meliloti, UniProt Q926E6); experiment: FRET biosensor SMb20712-CY, in vitro ligand titration; assay type: binding
T4 sequence (Q926E6 21-309): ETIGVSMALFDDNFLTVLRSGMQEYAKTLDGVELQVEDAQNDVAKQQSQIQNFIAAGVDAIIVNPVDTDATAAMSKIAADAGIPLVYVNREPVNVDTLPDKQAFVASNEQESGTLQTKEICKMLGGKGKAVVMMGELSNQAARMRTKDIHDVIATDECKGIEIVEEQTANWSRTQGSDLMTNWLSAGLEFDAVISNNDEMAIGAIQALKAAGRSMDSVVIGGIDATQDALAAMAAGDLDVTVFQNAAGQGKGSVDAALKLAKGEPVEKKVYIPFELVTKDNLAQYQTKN
Procedure: as §1, §2

Chain of SMc04259-CY (Q92P64 entry or part of it): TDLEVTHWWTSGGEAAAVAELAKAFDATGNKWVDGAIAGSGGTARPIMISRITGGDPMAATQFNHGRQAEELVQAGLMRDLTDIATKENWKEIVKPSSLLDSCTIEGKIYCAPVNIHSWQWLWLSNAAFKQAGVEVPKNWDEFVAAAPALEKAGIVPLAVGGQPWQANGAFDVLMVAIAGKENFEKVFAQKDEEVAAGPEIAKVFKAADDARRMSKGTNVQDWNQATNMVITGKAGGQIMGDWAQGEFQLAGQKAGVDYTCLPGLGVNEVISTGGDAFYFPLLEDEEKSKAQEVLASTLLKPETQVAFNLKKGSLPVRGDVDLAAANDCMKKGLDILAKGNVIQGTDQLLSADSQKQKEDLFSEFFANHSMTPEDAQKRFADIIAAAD

## OC[C@H]1O[C@@H](O[C@@H]2[C@@H](CO)OC(O)(CO)[C@H]2O)[C@H](O)[C@@H](O)[C@H]1O (mixture of isomers) [lactulose]
SMc04259-CY
  change in FRET with compound: no change in FRET

## OC1OC[C@@H](O)[C@@H](O)[C@@H]1O (stereo partly drawn) [D-arabinose]
RL2376-CY
  change in FRET ratio on addition of compound: no change in FRET ratio
[1]; RL2376, Table 1
  Inducer of gene expression (fold change): D-arabinose (3.6) fold
[1]; microarray, compared with cells grown on glucose
  induction of genes RL2376-9 (fold): up to 3.6 fold

## C[C@H]1OC(O)[C@H](O)[C@@H](O)[C@H]1O (stereo partly drawn) [D-fucose]
SMc02324-CY
  reaction of biosensor with compound (FRET): did not react
SMc02774-CY
  reaction of biosensor with compound (FRET): did not react

## OC[C@@H](O)[C@@H]1OC(O)[C@H](O)[C@H]1O (stereo partly drawn) [D-galactofuranose]
RL2376-CY; hypothetical solution of pure D-galactofuranose, furanoses 7.7% of D-galactose in solution, read-out: estimated Kd for D-galactofuranose specifically
  Kd: 408 ± 131 nM

## C[C@H](O)[C@@H](O)[C@@H](O)[C@H](O)C=O [L-fucose]
SMc02324-CY
  Kd: 11 µM
SMc02324-RO
  Kd: 19 µM
SMc02774-CY
  difference between the affinity of SMc02774-CY for L-fucose compared to its affinity for L-rhamnose: three order-magnitude difference
  Kd: 3.6 nM

## O=C(O)C[C@H](O)C(=O)O [L-malate]
rcc03024-CY (DctP)
  Kd: 70 nM
rcc03024-RO
  change in FRET ratio on binding ligand: no change in FRET ratio

## C[C@H](O)[C@H](O)[C@@H](O)[C@@H](O)C=O [L-rhamnose]
SMc02324-CY
  difference in affinity of SMc02324 for L-rhamnose compared to L-fucose: three order-magnitude difference
  Kd: 0.0073 µM
SMc02324-RO
  Kd: 0.0069 µM
SMc02774-CY
  Kd: 1600 nM

## CC(=O)N[C@H]1[C@H]([C@H](O)[C@H](O)CO)OC(O)(C(=O)O)C[C@@H]1O (stereo partly shown) [N-acetyl-5-neuraminic acid]
SMb20036-CY
  change in FRET ratio on addition of compound: no change in FRET ratio

## O=C(O)c1ccccc1 [benzoic acid]
SMb20036-CY
  change in FRET ratio on addition of compound: no change in FRET ratio

## O=C[C@H](O)[C@@H](O)[C@H](O[C@@H]1O[C@H](CO)[C@@H](O)[C@H](O)[C@H]1O)[C@H](O)CO [cellobiose]
SMc04259-CY
  Kd: 33 nM
SMc04259-RO
  change in FRET ratio on binding ligand: no change in FRET ratio

## O=C(O)CC(O)(CC(=O)O)C(=O)O [citrate]
rcc03024-CY (DctP)
  change in FRET ratio on addition of compound: no change in FRET ratio

## [2H]C(=O)C[C@H](O)[C@H](O)CO [deoxy-D-ribose]
SMc02324-CY
  reaction of biosensor with compound (FRET): did not react

## OC[C@@H](O)[C@H](O)[C@H](O)[C@@H](O)CO [dulcitol]
SMc02324-CY
  reaction of biosensor with compound (FRET): did not react

## OC[C@@H](O)[C@@H](O)CO [erythritol]
SMc02324-CY
  reaction of biosensor with compound (FRET): did not react

## O=C(O)/C=C/C(=O)O [fumarate]
rcc03024-CY (DctP)
  ΔFRET on saturation (%): −2.7±0.2%
  Kd: 58 nM

## O=C(O)c1cc(O)c(O)c(O)c1 [gallic acid]
SMb20036-CY
  change in FRET ratio on addition of compound: no change in FRET ratio

## O=P(O)(O)O[C@@H]1[C@H](O)[C@H](O)[C@@H](OP(=O)(O)O)[C@H](OP(=O)(O)O)[C@H]1O [inositol 1,4,5-trisphosphate]
SMb20712-CY
  reaction of biosensor with compound (FRET): did not react

## OC[C@H]1O[C@@H](O[C@H]2[C@H](O)[C@@H](O)[C@H](O)O[C@@H]2CO)[C@H](O)[C@@H](O)[C@H]1O [lactose]
SMc04259-CY
  change in FRET with compound: no change in FRET

## O=C(O)/C=C\C(=O)O [maleate]
rcc03024-CY (DctP)
  change in FRET ratio on addition of compound: no change in FRET ratio

## O=C(O)CC(=O)O [malonate]
rcc03024-CY (DctP)
  change in FRET ratio on addition of compound: no change in FRET ratio

## OC[C@H]1O[C@H](O[C@H]2[C@H](O)[C@@H](O)[C@H](O)O[C@@H]2CO)[C@H](O)[C@@H](O)[C@@H]1O [maltose]
SMc04259-CY
  change in FRET with compound: no change in FRET

## OC[C@H]1OC(O)[C@@H](O)[C@@H](O)[C@@H]1O (stereo partly shown) [mannose]
SMc04259-CY
  change in FRET with compound: no change in FRET

## O[C@H]1[C@H](O)[C@@H](O)[C@H](O)[C@@H](O)[C@H]1O [myo-inositol]
SMb20712-CY; pCYS (pLMB319), Tris-HCl pH 8.5
  Kd: 470 nM

## O=C(O)CC(=O)C(=O)O [oxaloacetate]
rcc03024-CY (DctP)
  Kd: 16000 nM

## O=P(O)(O)O[C@H]1[C@H](OP(=O)(O)O)[C@@H](OP(=O)(O)O)[C@H](OP(=O)(O)O)[C@@H](OP(=O)(O)O)[C@H]1OP(=O)(O)O [phytic acid]
SMb20712-CY
  reaction of biosensor with compound (FRET): did not react

## CC(=O)C(=O)O [pyruvate]
SMc02774-CY
  reaction of biosensor with compound (FRET): did not react
rcc03024-CY (DctP)
  change in FRET ratio on addition of compound: no change in FRET ratio

## O=C(O)CCC(=O)O [succinate]
rcc03024-CY (DctP)
  ΔFRET on saturation (%): −2.7±0.2%
  Kd: 36 nM
rcc03024-RO
  change in FRET ratio on binding ligand: no change in FRET ratio

## O=C(CO)[C@@H](O)[C@@H](O)[C@H](O)CO [tagatose]
SMc02324-CY
  reaction of biosensor with compound (FRET): did not react

## O=C[C@H](O)[C@@H](O)[C@H](O)CO [xylose]
SMc04259-CY
  change in FRET with compound: no change in FRET

## O=C(O)CCC(=O)C(=O)O [α-ketoglutarate]
rcc03024-CY (DctP)
  change in FRET ratio on addition of compound: no change in FRET ratio

## gentiobiose
SMc04259-RO
  change in FRET ratio on binding ligand: no change in FRET ratio
